From US20250221966A1, “RXFP1 AGONISTS” (BRISTOL-MYERS SQUIBB COMPANY, priority 2021, published 2025)

Molecular target: T1, human RXFP1 (Homo sapiens, UniProt Q9HBX9)
T1 construct: expressed in transfected cells
T1 sequence (Q9HBX9 1-757): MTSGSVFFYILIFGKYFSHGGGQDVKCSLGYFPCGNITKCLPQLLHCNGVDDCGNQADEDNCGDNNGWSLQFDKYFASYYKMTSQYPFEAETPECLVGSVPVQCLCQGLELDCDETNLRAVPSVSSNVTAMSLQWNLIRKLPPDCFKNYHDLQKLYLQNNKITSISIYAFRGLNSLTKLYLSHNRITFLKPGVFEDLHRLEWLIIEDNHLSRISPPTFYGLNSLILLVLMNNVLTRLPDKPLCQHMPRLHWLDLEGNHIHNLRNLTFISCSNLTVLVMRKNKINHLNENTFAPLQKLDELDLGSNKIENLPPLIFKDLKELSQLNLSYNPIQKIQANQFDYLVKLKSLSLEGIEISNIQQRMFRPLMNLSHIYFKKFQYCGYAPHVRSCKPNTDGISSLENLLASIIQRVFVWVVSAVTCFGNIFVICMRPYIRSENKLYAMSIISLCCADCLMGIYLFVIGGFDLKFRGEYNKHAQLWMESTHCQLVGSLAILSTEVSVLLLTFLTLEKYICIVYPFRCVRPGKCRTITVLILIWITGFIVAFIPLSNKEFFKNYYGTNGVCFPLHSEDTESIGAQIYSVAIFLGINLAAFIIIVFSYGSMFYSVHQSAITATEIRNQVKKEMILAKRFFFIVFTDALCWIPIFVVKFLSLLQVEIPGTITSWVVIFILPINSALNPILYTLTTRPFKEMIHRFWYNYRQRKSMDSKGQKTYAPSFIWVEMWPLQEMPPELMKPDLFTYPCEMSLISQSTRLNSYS
Assay: RXFP1 cAMP assay (hRXFP1 HEK293 cAMP assay, HTRF)
Format: cell-based
Details: HEK293 cells stably expressing human RXFP1, 30 min at room temperature, read-out: cAMP hRXFP1 HEK293 Assay EC50
Procedure, shortened: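 HEK293 cells stably expressing human RXFP1 (1500 cells/well) in HBSS/20 mM HEPES/0.05% BSA/0.5 mM IBMX. Compounds were tested at 0.010 nM–50 μM final (2% DMSO) for 30 min at room temperature. cAMP was measured by HTRF and values derived by 4-parameter logistic fit.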

EC50 [nM] | SMILES
15.7 | COC(=O)C1CC2ON=C(c3ccc(OC)c(C(=O)N[C@H]4[C@@H](C(=O)Nc5ccc(F)c(C(F)(F)F)c5)[C@H]5CC[C@@H]4/C5=C\C4CC4)c3)C2C1 (stereo partly shown) [compound 512]
32 | COc1ccc(-c2cccnc2)cc1C(=O)N[C@@H]1C2CCC(/C2=C/C2CC2)[C@@H]1C(=O)Nc1ccc(F)c(C(F)(F)F)c1 (stereo partly shown) [compound 278]
67.8 | COc1ccc(C2=NO[C@H]3[C@@H]2CC[C@@H]3O)cc1C(=O)N[C@H]1[C@@H](C(=O)Nc2ccc(F)c(C(F)(F)F)c2)[C@H]2CC[C@@H]1/C2=C\C1CC1 (single isomer, unassigned) [compound 574]
172 | COc1ccc(C2=NOC3COCC23)cc1C(=O)N[C@H]1[C@@H](C(=O)Nc2ccc(F)c(C(F)(F)F)c2)[C@H]2CC[C@@H]1/C2=C\C1CC1 (stereo partly drawn) [Example 417, (1R,2S,3R,4R,Z)-7-(cyclopropylmethylene)-N-(4-fluoro-3-(trifluoromethyl)phenyl)-3-(2-methoxy-5-(3a,4,6,6a-tetrahydrofuro[3,4-d]isoxazol-3-yl)benzamido)bicyclo[2.2.1]heptane-2-carboxamide]
5.3 | COc1ccc(-c2cc(S(=O)(=O)NC(C)(C)C)ccc2F)cc1C(=O)N[C@H]1[C@@H](C(=O)N[C@H](C)C2(C)CC2)[C@H]2CC[C@@H]1/C2=C\C1CC1 [compound 957]
1980 | Cc1ccc(C2=NOC3COCC23)cc1C(=O)N[C@H]1[C@@H](C(=O)Nc2ccc(F)c(C(F)(F)F)c2)[C@H]2CC[C@@H]1/C2=C\C1CC1 (single isomer, unassigned) [compound 716]
3.6 | COc1ccc(-c2cnc3n2CCC3O)cc1C(=O)N[C@H]1[C@@H](C(=O)Nc2ccc(F)c(C(F)(F)F)c2)[C@H]2CC[C@@H]1/C2=C\C1CC1 (stereo partly shown) [compound 754]
241 | O=C(N[C@H]1[C@@H](C(=O)Nc2ccc(F)c(C(F)(F)F)c2)[C@H]2CC[C@@H]1/C2=C\C1CC1)c1cccc(C2=NOC3COCC23)c1 (single isomer, unassigned) [compound 647]
110 | COc1cc(F)c(F)cc1C(=O)N[C@@H]1C2CCC(/C2=C/c2cccc(-c3ccccc3)c2)[C@@H]1C(=O)Nc1ccc(F)c(C(F)(F)F)c1 (stereo partly shown) [compound 15]
6.7 | COc1ccc(C2=NOC(CO)C2CO)cc1C(=O)N[C@H]1[C@@H](C(=O)Nc2ccc(F)c(C(F)(F)F)c2)[C@H]2CC[C@@H]1/C2=C\C1CC1 (single isomer, unassigned) [compound 481]
16 | COc1ccc(C2=NOC(CO)C2)cc1C(=O)N[C@H]1[C@@H](C(=O)Nc2ccc(F)c(C(F)(F)F)c2)[C@H]2CC[C@@H]1/C2=C\C1CCC1 (mixture of isomers) [Example 378, (1R,2S,3R,4R,Z)-7-(cyclobutylmethylene)-N-(4-fluoro-3-(trifluoromethyl)phenyl)-3-(5-(5-(hydroxymethyl)-4,5-dihydroisoxazol-3-yl)-2-methoxybenzamido)bicyclo[2.2.1]heptane-2-carboxamide]
4.4 | COc1c(F)cc(C2=NOC3CC(CO)CC23)cc1C(=O)N[C@H]1[C@@H](C(=O)NC23CC(C#N)(C2)C3)[C@H]2CC[C@@H]1/C2=C\C1CC1 (stereo partly shown) [compound 775]
3.8 | COc1ccc(C2=NOC3COCC23)cc1C(=O)N[C@H]1[C@@H](C(=O)N[C@H](CF)C2(C)CC2)[C@H]2CC[C@@H]1/C2=C\C1CC1 (stereo partly shown) [compound 771]
3200 | COc1cc(F)c(F)cc1C(=O)N[C@@H]1C2CCC(/C2=C/c2ccccc2C#N)[C@@H]1C(=O)Nc1ccc(F)c(C(F)(F)F)c1 (stereo partly shown) [compound 68]
36 | COc1ccc(-c2ccc(N3CCOCC3)c(C(=O)OC(C)(C)C)c2)cc1C(=O)N[C@H]1[C@@H](C(=O)Nc2ccc(F)c(C(F)(F)F)c2)[C@H]2CC[C@@H]1/C2=C\C1CC1 [Example 251, tert-butyl 3′-(((1R,2R,3S,4R,Z)-7-(cyclopropylmethylene)-3-((4-fluoro-3-(trifluoromethyl)phenyl)carbamoyl)bicyclo[2.2.1]heptan-2-yl)carbamoyl)-4′-methoxy-4-morpholino-[1,1′-biphenyl]-3-carboxylate]
19 | COc1ccc(-c2cc(C(C)(C)O)on2)cc1C(=O)N[C@@H]1C2CCC(/C2=C/C2CC2)[C@@H]1C(=O)Nc1ccc(F)c(C(F)(F)F)c1 (stereo partly shown) [compound 425]
24.7 | COc1ccc([C@@H]2CO[C@H]3[C@@H]2OC[C@@H]3O)cc1C(=O)N[C@H]1[C@@H](C(=O)Nc2ccc(F)c(C(F)(F)F)c2)[C@H]2CC[C@@H]1/C2=C\C1CC1 [Example 536, (1R,2S,3R,4R,Z)-7-(cyclopropylmethylene)-N-(4-fluoro-3-(trifluoromethyl)phenyl)-3-(5-((3R,3aR,6S,6aR)-6-hydroxyhexahydrofuro[3,2-b]furan-3-yl)-2-methoxybenzamido)bicyclo[2.2.1]heptane-2-carboxamide]

EC50 [nM] | SMILES
59.4 | COc1ccc(C2CCN(CC(C)(C)O)C2)cc1C(=O)N[C@@H]1C2CCC(C2=CC2CC2)[C@@H]1C(=O)Nc1ccc(F)c(C(F)(F)F)c1 (stereo partly shown) [compound 568]
1 | COc1c(F)cc(C2=NOC3CC(C)(CO)CC23)cc1C(=O)N[C@H]1[C@@H](C(=O)N[C@H](C)C2(C)CC2)[C@H]2CC[C@@H]1/C2=C\C1CC1 (stereo partly shown) [compound 961]
7.8 | COc1c(F)cc(C2=NOC3CC(O)(C(F)(F)F)CC23)cc1C(=O)N[C@H]1[C@@H](C(=O)Nc2ccc(F)c(C(F)(F)F)c2)[C@H]2CC[C@@H]1/C2=C\C1CC(F)(F)C1 (stereo partly shown) [compound 914]
1390 | COc1ccc(C2=NOC(CNC(=O)OC(C)(C)C)C2)cc1C(=O)N[C@@H]1C2CCC(/C2=C/C(F)(F)F)[C@@H]1C(=O)Nc1ccc(F)c(C(F)(F)F)c1 (stereo partly shown) [compound 403]
6.1 | COc1ccc(-c2cc([C@@H](NC(=O)C3CCOCC3)C(F)(F)F)ccc2F)cc1C(=O)N[C@H]1[C@@H](C(=O)Nc2ccc(F)c(C(F)(F)F)c2)[C@H]2CC[C@@H]1/C2=C\C1CCCC1 [compound 956]
5 | CN(C)c1c(Cl)cc(C2=NOC3COCC23)cc1C(=O)N[C@H]1[C@@H](C(=O)Nc2ccc(F)c(C(F)(F)F)c2)[C@H]2CC[C@@H]1/C2=C\C1CC1 (single isomer, unassigned) [compound 474]
1.4 | COc1ccc(-c2cc(C(OC(=O)NC3CCC3)C(=O)O)ccc2F)cc1C(=O)N[C@H]1[C@@H](C(=O)Nc2ccc(F)c(C(F)(F)F)c2)[C@H]2CC[C@@H]1/C2=C\C1CCCC1 (stereo partly shown) [compound 936]
1750 | O=C(N[C@H]1[C@@H](C(=O)Nc2ccc(F)c(C(F)(F)F)c2)[C@H]2CC[C@@H]1/C2=C\C1CC1)c1ccc(F)c(C2=NOC3COCC23)c1 (stereo partly shown) [compound 714]
73 | COC(=O)C(NC(=O)C1CCOCC1)c1ccc(F)c(-c2ccc(OC)c(C(=O)N[C@@H]3C4CCC(/C4=C/C(F)(F)F)[C@@H]3C(=O)Nc3ccc(F)c(C(F)(F)F)c3)c2)c1 (stereo partly shown) [compound 247]
2.1 | COc1ccc(-c2cc([C@H](OC(=O)NC3CCC3)C(F)(F)F)ccc2F)cc1C(=O)N[C@H]1[C@@H](C(=O)N[C@H](C)C2(C)CC2)[C@H]2CC[C@@H]1/C2=C\C1CC(F)(F)C1 [compound 967]
3.9 | COc1ccc(C2=NOC3CC(CO)CC23)cc1C(=O)N[C@H]1[C@@H](C(=O)NC2(C)CCCC2)[C@H]2CC[C@@H]1/C2=C\C1CC1 (stereo partly shown) [compound 466]
10 | COc1ccc(C2CC3CN(C(=O)OC(C)(C)C)CC32)cc1C(=O)N[C@H]1[C@@H](C(=O)Nc2ccc(F)c(C(F)(F)F)c2)[C@H]2CC[C@@H]1/C2=C\C1CC1 (single isomer, unassigned) [compound 731]
303 | COc1ccc(C2=NO[C@@H]3CC[C@@H](O)[C@H]23)cc1C(=O)N[C@H]1[C@@H](C(=O)Nc2ccc(F)c(C(F)(F)F)c2)[C@H]2CC[C@@H]1/C2=C\C1CC1 (single isomer, unassigned) [compound 655]
3.6 | COc1ccc(C2=NOC3COCC23)cc1C(=O)N[C@H]1[C@@H](C(=O)N[C@H](C)C2(C)CC2(F)F)[C@H]2CC[C@@H]1/C2=C\C1CC1 (stereo partly shown) [compound 770]
150 | COC(=O)c1cccc(-c2ccc(OC)c(C(=O)N[C@H]3[C@@H](C(=O)Nc4ccc(F)c(C(F)(F)F)c4)[C@H]4CC[C@@H]3C4=C(C)C)c2)c1 [compound 86]
2 | CNC(=O)OC(c1ccc(F)c(-c2ccc(OC)c(C(=O)N[C@@H]3C4CCC(/C4=C/C4CC4)[C@@H]3C(=O)Nc3ccc(F)c(C(F)(F)F)c3)c2)c1)C(F)(F)F (stereo partly shown) [compound 217]
17 | COc1cc(F)c(C2=NOC3COCC23)cc1C(=O)N[C@H]1[C@@H](C(=O)Nc2ccc(F)c(C(F)(F)F)c2)[C@H]2CC[C@@H]1/C2=C\C1CC1 (stereo partly drawn) [Example 419, (1R,2S,3R,4R,Z)-7-(cyclopropylmethylene)-3-(4-fluoro-2-methoxy-5-(3a,4,6,6a-tetrahydrofuro[3,4-d]isoxazol-3-yl)benzamido)-N-(4-fluoro-3-(trifluoromethyl)phenyl)bicyclo[2.2.1]heptane-2-carboxamide]
